The results in this text go back to publication PMC5218480 (PLoS ONE, 2017).

This test deals with MV-4-11 cells. The test can be described thus: Gene expression microarray analysis (Affymetrix PrimeView) and GSEA. Details: RFU PODN (11730768_x_at) / Fold change /veh PODN (11730768_x_at) / RFU LINC00158 (11744669_a_at) / Fold change /veh LINC00158 (11744669_a_at) / RFU DUSP10 (11751237_a_at) / Fold change /veh DUSP10 (11751237_a_at) / RFU ID3 (11757404_x_at) / Fold change /veh ID3 (11757404_x_at) / RFU PLEKHG5 (11737974_s_at) / Fold change /veh PLEKHG5 (11737974_s_at) / RFU LRRC4B (11730491_at) / Fold change /veh LRRC4B (11730491_at) / RFU GIMAP4 (11747438_a_at) / Fold change /veh GIMAP4 (11747438_a_at) / RFU KRT8 (11758183_x_at) / Fold change /veh KRT8 (11758183_x_at) / RFU CNN1 (11734310_a_at) / Fold change /veh CNN1 (11734310_a_at) / RFU VPS37D (11726825_at) / Fold change /veh VPS37D (11726825_at) / RFU C10orf10 (11716522_x_at) / Fold change /veh C10orf10 (11716522_x_at) / RFU KIR2DL2 /// KIR2DL4 /// KIR2DL5A /// KIR2DL5B /// KIR2DS1 /// KIR2DS2 /// KIR2DS3 /// KIR2DS4 /// KIR3DL3 /// KIR3DL3 /// KIR3DS1 (11738374_at) / Fold change /veh KIR2DL2 /// KIR2DL4 /// KIR2DL5A /// KIR2DL5B /// KIR2DS1 /// KIR2DS2 /// KIR2DS3 /// KIR2DS4 /// KIR3DL3 /// KIR3DL3 /// KIR3DS1 (11738374_at) / RFU C1QL1 (11718748_at) / Fold change /veh C1QL1 (11718748_at) / RFU TMPRSS4 (11747572_a_at) / Fold change /veh TMPRSS4 (11747572_a_at) / RFU HAMP (11756126_x_at) / Fold change /veh HAMP (11756126_x_at) / RFU RNFT2 (11725882_a_at) / Fold change /veh RNFT2 (11725882_a_at) / RFU NR4A2 (11747474_a_at) / Fold change /veh NR4A2 (11747474_a_at) / RFU ABCC12 (11746883_a_at) / Fold change /veh ABCC12 (11746883_a_at) / RFU TMEM136 (11760407_x_at) / Fold change /veh TMEM136 (11760407_x_at) / RFU CLDN22 /// WWC2 (11732394_at) / Fold change /veh CLDN22 /// WWC2 (11732394_at) / RFU HLA-DPB1 (11760878_x_at) / Fold change /veh HLA-DPB1 (11760878_x_at) / RFU SPINT1 (11716480_a_at) / Fold change /veh SPINT1 (11716480_a_at) / RFU GAP43 (11754022_s_at) / Fold change /veh GAP43 (11754022_s_at) / RFU A4GNT (11735810_at) / Fold change /veh A4GNT (11735810_at) / RFU PRB3 (11715151_x_at) / Fold change /veh PRB3 (11715151_x_at) / RFU TUBB4B (11761932_at) / Fold change /veh TUBB4B (11761932_at) / RFU CAPN14 (11732068_a_at) / Fold change /veh CAPN14 (11732068_a_at) / RFU TMCC2 (11721928_a_at) / Fold change /veh TMCC2 (11721928_a_at) / RFU IRGQ (11745062_a_at) / Fold change /veh IRGQ (11745062_a_at) / RFU FAM174B (11720279_a_at) / Fold change /veh FAM174B (11720279_a_at) / RFU TMPRSS4 (11748680_a_at) / Fold change /veh TMPRSS4 (11748680_a_at) / RFU FAM212B (11763350_a_at) / Fold change /veh FAM212B (11763350_a_at) / RFU PLEKHG5 (11743358_a_at) / Fold change /veh PLEKHG5 (11743358_a_at) / RFU ZSCAN30 (11745921_a_at) / Fold change /veh ZSCAN30 (11745921_a_at) / RFU CMKLR1 (11741424_a_at) / Fold change /veh CMKLR1 (11741424_a_at) / RFU LOC101060620 /// MAPK8IP1 (11723275_at) / Fold change /veh LOC101060620 /// MAPK8IP1 (11723275_at) / RFU SPTSSB (11747773_x_at) / Fold change /veh SPTSSB (11747773_x_at) / RFU PRSS12 (11739890_at) / Fold change /veh PRSS12 (11739890_at) / RFU BIN1 (11741810_x_at) / Fold change /veh BIN1 (11741810_x_at) / RFU WNT11 (11732464_a_at) / Fold change /veh WNT11 (11732464_a_at) / RFU C10orf10 (11716521_a_at) / Fold change /veh C10orf10 (11716521_a_at) / RFU C5orf56 (11738089_at) / Fold change /veh C5orf56 (11738089_at) / RFU CYB561 (11721691_x_at) / Fold change /veh CYB561 (11721691_x_at) / RFU ANKRD19P (11752326_a_at) / Fold change /veh ANKRD19P (11752326_a_at) / RFU OR2T12 /// OR2T33 /// OR2T8 (11738714_s_at) / Fold change /veh OR2T12 /// OR2T33 /// OR2T8 (11738714_s_at) / RFU VCAN (11748164_a_at) / Fold change /veh VCAN (11748164_a_at) / RFU JSRP1 (11732532_at) / Fold change /veh JSRP1 (11732532_at) / RFU KRTAP10-11 (11738290_x_at) / Fold change /veh KRTAP10-11 (11738290_x_at) / RFU MYO3A (11730013_a_at) / Fold change /veh MYO3A (11730013_a_at) / RFU EBF3 (11725865_a_at) / Fold change /veh EBF3 (11725865_a_at) / RFU CAMK2N1 (11719241_x_at) / Fold change /veh CAMK2N1 (11719241_x_at) / RFU C5orf56 (11738088_a_at) / Fold change /veh C5orf56 (11738088_a_at) / RFU OLFML3 (11715873_a_at) / Fold change /veh OLFML3 (11715873_a_at) / RFU LOC100653217 /// NTM (11731650_a_at) / Fold change /veh LOC100653217 /// NTM (11731650_a_at) / RFU MAPK11 (11762145_a_at) / Fold change /veh MAPK11 (11762145_a_at) / RFU FIZ1 (11724087_x_at) / Fold change /veh FIZ1 (11724087_x_at) / RFU OASL (11726364_x_at) / Fold change /veh OASL (11726364_x_at) / RFU SOX15 (11748057_x_at) / Fold change /veh SOX15 (11748057_x_at) / RFU CD79A (11719716_a_at) / Fold change /veh CD79A (11719716_a_at) / RFU HIST1H1D (11736915_at) / Fold change /veh HIST1H1D (11736915_at) / RFU CASKIN2 (11723855_a_at) / Fold change /veh CASKIN2 (11723855_a_at) / RFU LOC730098 (11760151_x_at) / Fold change /veh LOC730098 (11760151_x_at) / RFU OR4N2 (11742367_at) / Fold change /veh OR4N2 (11742367_at) / RFU PRRT2 (11749266_a_at) / Fold change /veh PRRT2 (11749266_a_at) / RFU SNX32 (11753110_a_at) / Fold change /veh SNX32 (11753110_a_at) / RFU CDHR5 (11726645_a_at) / Fold change /veh CDHR5 (11726645_a_at) / RFU RCAN1 (11760418_a_at) / Fold change /veh RCAN1 (11760418_a_at) / RFU FAM167A (11723789_a_at) / Fold change /veh FAM167A (11723789_a_at) / RFU FAM26E (11764081_at) / Fold change /veh FAM26E (11764081_at) / RFU ISYNA1 (11749810_s_at) / Fold change /veh ISYNA1 (11749810_s_at) / RFU ACY1 (11761880_at) / Fold change /veh ACY1 (11761880_at) / RFU 11764098_at / Fold change /veh 11764098_at / RFU SAMD14 (11745864_x_at) / Fold change /veh SAMD14 (11745864_x_at) / RFU NPB (11741838_a_at) / Fold change /veh NPB (11741838_a_at) / RFU TMPRSS6 (11731388_a_at) / Fold change /veh TMPRSS6 (11731388_a_at) / RFU KRTAP10-2 (11738614_at) / Fold change /veh KRTAP10-2 (11738614_at) / RFU ARHGAP8 /// PRR5-ARHGAP8 (11727945_x_at) / Fold change /veh ARHGAP8 /// PRR5-ARHGAP8 (11727945_x_at) / RFU KRTAP5-7 /// NADSYN1 (11734609_at) / Fold change /veh KRTAP5-7 /// NADSYN1 (11734609_at) / RFU RASL12 (11751679_a_at) / Fold change /veh RASL12 (11751679_a_at) / RFU CDKN2B (11736163_a_at) / Fold change /veh CDKN2B (11736163_a_at) / RFU PRF1 (11729649_at) / Fold change /veh PRF1 (11729649_at) / RFU, ZNF638 /// ZNF638-IT1 / Fold change vs veh, ZNF638 /// ZNF638-IT1 / RFU, PANK3 / Fold change vs veh, PANK3 / RFU, SH3YL1 / Fold change vs veh, SH3YL1 / RFU, ZEB2 / Fold change vs veh, ZEB2 / RFU, NRIP1 / Fold change vs veh, NRIP1 / RFU, PTTG1IP / Fold change vs veh, PTTG1IP / RFU, CAPN2 / Fold change vs veh, CAPN2 / RFU, MED14 / Fold change vs veh, MED14 / RFU, SNORA58 / Fold change vs veh, SNORA58 / RFU, C1orf63 / Fold change vs veh, C1orf63 / RFU, LRRFIP1 / Fold change vs veh, LRRFIP1 / RFU, NDUFAF7 / Fold change vs veh, NDUFAF7 / RFU, SLC12A2 / Fold change vs veh, SLC12A2 / RFU, IBTK / Fold change vs veh, IBTK / RFU, ESF1 / Fold change vs veh, ESF1 / Fold change vs veh, TMEM50B / RFU, TAOK1 / Fold change vs veh, TAOK1 / RFU, ACBD3 / Fold change vs veh, ACBD3 / RFU, TMA16 / Fold change vs veh, TMA16 / RFU, RWDD3 / Fold change vs veh, RWDD3 / RFU, BCAT1 / Fold change vs veh, BCAT1 / RFU, EDEM3 / Fold change vs veh, EDEM3 / RFU, TMEM33 / Fold change vs veh, TMEM33 / RFU, WDR75 / Fold change vs veh, WDR75 / RFU, AHCTF1 / Fold change vs veh, AHCTF1 / RFU, TFRC / Fold change vs veh, TFRC / RFU, ZDHHC17 / Fold change vs veh, ZDHHC17 / RFU, NOM1 / Fold change vs veh, NOM1 / RFU, ARL8B / Fold change vs veh, ARL8B / RFU, ZBTB11 / Fold change vs veh, ZBTB11 / RFU, TAMM41 / Fold change vs veh, TAMM41 / RFU, KIAA1704 /// LOC100996395 / Fold change vs veh, KIAA1704 /// LOC100996395 / RFU, ING1 / Fold change vs veh, ING1 / RFU, TRMT61B / Fold change vs veh, TRMT61B / RFU, FUBP3 / Fold change vs veh, FUBP3 / RFU, TP53 / Fold change vs veh, TP53 / RFU, TNKS2 / Fold change vs veh, TNKS2 / RFU, ZFP14 / Fold change vs veh, ZFP14 / RFU, ACTR2 / Fold change vs veh, ACTR2 / RFU, PPP3R1 / Fold change vs veh, PPP3R1 / RFU, PIK3R1 / Fold change vs veh, PIK3R1 / RFU, HNRNPA1 / Fold change vs veh, HNRNPA1 / RFU, RNF170 / Fold change vs veh, RNF170 / RFU, ZNF28 / Fold change vs veh, ZNF28 / RFU, RNGTT / Fold change vs veh, RNGTT / RFU, OGT / Fold change vs veh, OGT / RFU, BRD1 / Fold change vs veh, BRD1 / RFU, MARS / Fold change vs veh, MARS / RFU, ZNF655 / Fold change vs veh, ZNF655 / RFU, FAHD1 / Fold change vs veh, FAHD1 / RFU, BDP1 / Fold change vs veh, BDP1 / RFU, LRRCC1 / Fold change vs veh, LRRCC1 / RFU, ARID1A / Fold change vs veh, ARID1A / RFU, ZNF146 / Fold change vs veh, ZNF146 / RFU, ZNF330 / Fold change vs veh, ZNF330 / RFU, GPN3 / Fold change vs veh, GPN3 / RFU, C9orf123 / Fold change vs veh, C9orf123 / RFU, N4BP2L2 / Fold change vs veh, N4BP2L2 / RFU, ARFIP1 / Fold change vs veh, ARFIP1 / RFU, FAM179B / Fold change vs veh, FAM179B / RFU, BCL10 / Fold change vs veh, BCL10 / RFU, UHRF1BP1L / Fold change vs veh, UHRF1BP1L / RFU, BET1 / Fold change vs veh, BET1 / RFU, CNOT2 / Fold change vs veh, CNOT2 / RFU, ZNF268 / Fold change vs veh, ZNF268 / Fold change vs veh, ZNF507 / RFU, DGCR2 / Fold change vs veh, DGCR2 / RFU, WDSUB1 / Fold change vs veh, WDSUB1 / Fold change vs veh, HSP90B1 /// MIR3652 / RFU, ADSS / Fold change vs veh, ADSS / RFU, GK / Fold change vs veh, GK / RFU, ZNF148 / Fold change vs veh, ZNF148 / RFU, TAF9 / Fold change vs veh, TAF9 / RFU, SLC1A5 / Fold change vs veh, SLC1A5 / RFU, SLMO2 / Fold change vs veh, SLMO2 / RFU, ABCC4 / Fold change vs veh, ABCC4 / RFU, LOC101060439 /// RAP1B / Fold change vs veh, LOC101060439 /// RAP1B / RFU, RFX7 / Fold change vs veh, RFX7 / RFU, GTPBP10 / Fold change vs veh, GTPBP10 / RFU, CNEP1R1 / Fold change vs veh, CNEP1R1 / RFU, BIVM-ERCC5 /// ERCC5 / Fold change vs veh, BIVM-ERCC5 /// ERCC5 / RFU, ILF3 / Fold change vs veh, ILF3 / RFU 11762660_at / Fold change /veh 11762660_at / RFU VCAN (11757783_s_at) / Fold change /veh VCAN (11757783_s_at) / RFU DDX43 (11728927_at) / Fold change /veh DDX43 (11728927_at) / RFU KRT8 (11758188_x_at) / Fold change /veh KRT8 (11758188_x_at) / RFU NKD1 (11759106_at) / Fold change /veh NKD1 (11759106_at) / RFU SRD5A1 (11742802_a_at) / Fold change /veh SRD5A1 (11742802_a_at) / RFU TPSAB1 /// TPSB2 (11721975_s_at) / Fold change /veh TPSAB1 /// TPSB2 (11721975_s_at) / RFU GSTM3 (11746129_a_at) / Fold change /veh GSTM3 (11746129_a_at) / RFU IL23R (11737362_x_at) / Fold change /veh IL23R (11737362_x_at) / RFU TMEM51 (11727254_a_at) / Fold change /veh TMEM51 (11727254_a_at) / RFU PIWIL2 (11732686_x_at) / Fold change /veh PIWIL2 (11732686_x_at) / RFU ORM1 (11744905_x_at) / Fold change /veh ORM1 (11744905_x_at) / RFU CCDC152 (11743942_at) / Fold change /veh CCDC152 (11743942_at) / RFU ECM1 (11717891_a_at) / Fold change /veh ECM1 (11717891_a_at) / RFU IL23R (11748794_a_at) / Fold change /veh IL23R (11748794_a_at) / RFU TNFAIP8L3 (11732012_x_at) / Fold change /veh TNFAIP8L3 (11732012_x_at) / RFU MBOAT4 (11741988_at) / Fold change /veh MBOAT4 (11741988_at) / RFU 11764193_at / Fold change /veh 11764193_at / RFU TMEM53 (11763286_at) / Fold change /veh TMEM53 (11763286_at) / RFU MAGEB2 (11727129_at) / Fold change /veh MAGEB2 (11727129_at) / RFU TMEM200A (11744735_a_at) / Fold change /veh TMEM200A (11744735_a_at) / RFU CCDC152 (11751479_a_at) / Fold change /veh CCDC152 (11751479_a_at) / RFU FAM211A (11726209_a_at) / Fold change /veh FAM211A (11726209_a_at) / RFU RGS16 (11746705_a_at) / Fold change /veh RGS16 (11746705_a_at) / RFU VCAN (11755009_s_at) / Fold change /veh VCAN (11755009_s_at) / RFU RHOB (11743442_s_at) / Fold change /veh RHOB (11743442_s_at) / RFU RGS16 (11720943_a_at) / Fold change /veh RGS16 (11720943_a_at) / RFU RGS16 (11720944_at) / Fold change /veh RGS16 (11720944_at) / RFU, VPS4B / Fold change vs veh, VPS4B / RFU, CREB1 / Fold change vs veh, CREB1 / RFU, DNAJC13 / Fold change vs veh, DNAJC13 / RFU, GNAQ / Fold change vs veh, GNAQ / RFU, CDK5R1 / Fold change vs veh, CDK5R1 / RFU, ZRANB3 / Fold change vs veh, ZRANB3 / RFU, CUL4A / Fold change vs veh, CUL4A / RFU, CCNY / Fold change vs veh, CCNY / RFU, UFL1 / Fold change vs veh, UFL1 / RFU, COG3 / Fold change vs veh, COG3 / RFU, DIAPH2 / Fold change vs veh, DIAPH2 / RFU, SKA2 / Fold change vs veh, SKA2 / RFU, AFF3 / Fold change vs veh, AFF3 / RFU, LMF1 / Fold change vs veh, LMF1 / RFU, IPO11 / Fold change vs veh, IPO11 / RFU, DFFB / Fold change vs veh, DFFB / RFU, FOXP1 / Fold change vs veh, FOXP1 / RFU, CARD8 / Fold change vs veh, CARD8 / RFU, STRN3 / Fold change vs veh, STRN3 / RFU, ADK / Fold change vs veh, ADK / RFU, RASSF2 / Fold change vs veh, RASSF2 / RFU, WIPF1 / Fold change vs veh, WIPF1 / RFU, LARP1B / Fold change vs veh, LARP1B / RFU, RASA1 / Fold change vs veh, RASA1 / RFU, RB1 / Fold change vs veh, RB1 / RFU, PPFIA1 / Fold change vs veh, PPFIA1 / RFU, MAT2A / Fold change vs veh, MAT2A / RFU, CCT5 / Fold change vs veh, CCT5 / RFU, WDR92 / Fold change vs veh, WDR92 / RFU, CUX1 / Fold change vs veh, CUX1 / RFU, TTC7A / Fold change vs veh, TTC7A / RFU, TMEM135 / Fold change vs veh, TMEM135 / RFU, DEPTOR / Fold change vs veh, DEPTOR / RFU, CPM / Fold change vs veh, CPM / RFU, DNAJB6 / Fold change vs veh, DNAJB6 / RFU, CACNA2D3 / Fold change vs veh, CACNA2D3 / RFU, DTX4 / Fold change vs veh, DTX4 / RFU, TFCP2 / Fold change vs veh, TFCP2 / RFU, GMCL1 /// GMCL1P1 / Fold change vs veh, GMCL1 /// GMCL1P1 / RFU, AEBP2 / Fold change vs veh, AEBP2 / RFU, SNHG1 /// SNORD22 /// SNORD25 /// SNORD26 /// SNORD27 /// SNORD28 /// SNORD29 /// SNORD31 / Fold change vs veh, SNHG1 /// SNORD22 /// SNORD25 /// SNORD26 /// SNORD27 /// SNORD28 /// SNORD29 /// SNORD31 / Fold change (Aza/veh), C12orf56 (ProbeSet 11735607_a_at) / Fold change (ACY-1035/veh), C12orf56 (ProbeSet 11735607_a_at) / Fold change (Aza/veh), FGFR1OP (ProbeSet 11751329_s_at) / Fold change (ACY-1035/veh), FGFR1OP (ProbeSet 11751329_s_at) / Fold change (Aza/veh), VPS36 (ProbeSet 11739960_a_at) / Fold change (ACY-1035/veh), VPS36 (ProbeSet 11739960_a_at) / RFU SYPL1 (11715823_x_at) / Fold change /veh SYPL1 (11715823_x_at) / RFU IGFBP7 (11715501_s_at) / Fold change /veh IGFBP7 (11715501_s_at) / RFU REEP3 (11722064_at) / Fold change /veh REEP3 (11722064_at) / RFU IGLL1 (11728026_x_at) / Fold change /veh IGLL1 (11728026_x_at): dose or concentration left out as unconfirmed. The following applies: ProbeSet 11731610_x_at; LIST B. The class given is cell-based, human.

In the case of `Nc1ncn([C@@H]2O[C@H](CO)[C@@H](O)[C@H]2O)c(=O)n1` [azacitidine], the “Fold change vs veh, KIAA1704 /// LOC100996395” value came to 1.05.
